Laboratory results published in patent publication US20220088144A1, “SGLT-2 INHIBITORS OR IL-1R ANTAGONISTS FOR REDUCTION OF HYPOGLYCAEMIA AFTER BARIATRIC SURGERY” (UNIVERSITÄTSSPITAL BASEL, priority 2019, published 2022).

Legend:
[1] = tested on: patients after bariatric surgery with post-prandial hypoglycaemia; assay: Clinical symptom scores during mixed-meal test (Edinburgh Hypoglycemia Scale, Sigstad Score, Stanford Sleepiness Scale); assay type: in vivo, human; design: key to Edinburgh Hypoglycemia Scale score, timepoint 180 min / Edinburgh Hypoglycemia Scale score, timepoint −120 min / Edinburgh Hypoglycemia Scale score, timepoint 0 min / Edinburgh Hypoglycemia Scale score, timepoint 60 min / Edinburgh Hypoglycemia Scale score, timepoint 90 min / Edinburgh Hypoglycemia Scale score, timepoint 120 min / Edinburgh Hypoglycemia Scale score, timepoint 150 min: 0 (=no symptoms); 3 (=severe symptoms); a = sweating; b = palpitations; c = shaking; d = hunger; e = confusion; f = drowsiness; g = odd behaviour; h = speech difficulty; i = incoordination; settings: for Edinburgh Hypoglycemia Scale score, timepoint 0 min / Edinburgh Hypoglycemia Scale score, timepoint 60 min / Edinburgh Hypoglycemia Scale score, timepoint 90 min / Edinburgh Hypoglycemia Scale score, timepoint 120 min / Edinburgh Hypoglycemia Scale score, timepoint 150 min / Edinburgh Hypoglycemia Scale score, timepoint 180 min / Edinburgh Hypoglycemia Scale score, timepoint −120 min: per patient and visit; for Edinburgh Hypoglycemia Scale score, timepoint 60 min: 60 min after meal; for Edinburgh Hypoglycemia Scale score, timepoint 90 min: 90 min after meal; for Edinburgh Hypoglycemia Scale score, timepoint 120 min: 120 min after meal; for Edinburgh Hypoglycemia Scale score, timepoint 150 min: 150 min after meal; for Edinburgh Hypoglycemia Scale score, timepoint 180 min: 180 min after meal; for model coefficient (treatment vs placebo) for occurrence of Edinburgh composite score ≥6: headed FIG. 11a, generalized linear additive mixed effect model; for Edinburgh Hypoglycemia Scale score, timepoint −120 min: −120 min relative to meal (time of oral dosing)
Procedure: The primary outcome in this study is the change of post-prandial hypoglycaemia after treatment with empagliflozin (Jardiance®) or anakinra (Kineret®) compared to placebo. This was assessed by blood glucose measurements (capillary POCT measurements and plasma glucose) as well as clinical scoring systems (Edinburgh Hypoglycaemia Scale (Deary et al. Diabetologia 1993; 36(8): 771-7), Mixed-Meal-Test (Wiesli et al. Eur J Endocrinol 2005; 152(4): 605-10.) Stanford sleepiness scale).
The secondary objectives are to evaluate whether treatment of empagliflozin (Jardiance®) or anakinra (Kineret®) have effects on the following aspects: • level of insulin secretion and sensitivity • levels of GLP-1, glucagon and C-peptide • levels of IL-6; IL-1Ra, CRP • scores in Edinburgh Hypoglycaemia Scale (clinical score for assessment of hypoglycemia), Stanford Sleepiness Scale (clinical score of assessment of sleepiness) as well as Sigstad Score (clinical score for early and late dumping symptoms) • Length of time and amount of glucose needed for restoring normoglycemia.
Statistical analysis for this proof-of-concept translational clinical trial was done on a per-protocol basis. Sample size was based on practical considerations due to the lack of pre-existing data for this intervention. All analyses are to be considered exploratory. Analysis of continuous dependent outcome variables (e.g. glucose, insulin, c-peptide, GLP-1, glucagon, insulin secretion index and sensitivity, IL-1p, IL-6, IL-8, TNFα), was done using linear mixed effect models fit by maximum likelihood. Analysis of the binary dependent outcome variables occurrence of severe hypoglycemia requiring glucose rescue and occurrence of composite score ≥6 on the Edinburgh Hypoglycemia Scale was done using a generalized linear additive mixed effect model fit by maximum likelihood (Laplace approximation). Models were fit including fixed effects for categorical variables such as gender, the occurrence of hypoglycemia, treatment and in case of values measured in cell culture supernatants, activation status (non-stimulated, LPS-simulated), as well as the continuous variables time and BMI as indicated. A random-effect for patient was equally included (random by-subject intercepts, fixed slopes). Models were computed using the R “Ime4” and “gamm4” packages. • Individual models were visually assessed for the presence of heteroscedasticity, collinearity and normality of residuals. […] For visual representation, log-transformed outcome values were back-transformed to their initial values.

bulk monocytes = assay: Ex vivo cytokine-secretion assay of monocytes isolated from treated patients; assay type: cell-based, human; settings: for IL-1 beta in monocyte supernatant, estimate vs placebo: FIG. 9a; for IL-1 beta in monocyte supernatant, estimate vs placebo / IL-6 in monocyte supernatant, estimate vs placebo / TNFalpha in monocyte supernatant, estimate vs placebo: post-meal, no-hypo vs placebo, no-hypo, non-stimulated; for IL-6 in monocyte supernatant, estimate vs placebo: FIG. 9b; for TNFalpha in monocyte supernatant, estimate vs placebo: FIG. 9c; for postprandial increase in inflammatory cytokine secretion (IL-1β, IL-6, TNF-α) by monocytes: ex vivo culture 18 h, compared to placebo
Procedure: In order to evaluate if changes at RNA level translated into protein expression, the inventors cultured monocytes isolated as described for RNA sequencing for a period of 18 h and measured pro-inflammatory cytokines in cell culture supernatants. […] In line with the reasoning, it has been shown that monocytes taken from an inherently pro-inflammatory milieu (septic shock), express increased mRNA levels of various inflammatory cytokines and chemokines (IL-1β, IL-1α, IL-6, CCL2), but release markedly lower levels of protein following ex vivo stimulation with LPS.
Blood samples were taken before and 60 minutes after meal intake. Due to scheduling conflicts, samples from two patients could not be processed. These samples are thus assumed to be missing at random. Of note, samples from patient 3 (sleeve gastrectomy) had already been processed for RNA sequencing before the final change of protocol. Sequencing data obtained from this patient were thus kept for the purpose of these analyses. Peripheral blood mononuclear cells were obtained by Ficoll density gradient centrifugation (Lymphoprep Fresenius Kabi, Norway). For 9 out of 11 patients, an additional step was added after density gradient centrifugation to pre-enrich monocytes by negative selection with CD3 human MicroBeads (#130-050-101; Miltenyi Biotec). The obtained cellular monocyte fractions were then incubated with FC-Block for 15 minutes at room temperature [(Human FcR TruStain FcX (Biolegend) REF 422302, compatible with flow cytometric staining with anti-human CD16 (clone 3G8)], and subsequently labeled with the following antibodies: APC Mouse anti-Human CD3 [HIT3a alpha] (#555342; BD Biosciences), FITC Mouse Anti-Human CD19 [HIB19 RUO] (#560994; BD Biosciences), PE-Cy5 Mouse Anti-Human CD56 [B159 RUO] (#560842; BD Biosciences), PE Mouse Anti-Human CD16 [3G8 RUO] (#560995; BD Biosciences), APC-Cy7 Mouse Anti-Human CD14 [MφP-9 RUO] (#561709; BD Biosciences).
Cells were then further enriched into the three monocyte subsets by fluorescence-activated cell sorting on a BD FACS-Aria III. Classical monocytes were defined as: single, live, CD56− CD19−CD3−CD14+CD16−, Intermediate monocytes were defined as: single, live CD56−CD19− CD3−CD14+CD16+ and non-classical monocytes were defined as: single, live CD56−CD19− CD3−CD14−CD16+. Bulk monocytes were defined as a combination-gate of the three subsets. For a representative example of the gating strategy see FIG. 13.
Bulk monocytes obtained as described above were resuspended in fresh medium (RPMI-1640 (containing 11 mM Glucose, #31870-025; GIBCO) containing 200 U/ml penicillin, 200 U/ml streptomycin (Pen/Strep, #15140; GIBCO), 2 mM Glutamax (#35050061; GIBCO), 1 mM NaPyruvat (#11360-039; GIBCO), 1×MeM (#11140050; Sigma) and 10% FCS (#10500; Invitrogen)) at a density of 50'000 cells/well in a standard 96-well U-bottom plate. For each patient-visit sample, monocytes pre- and post-liquid mixed-meal were either left unstimulated (baseline condition) or activated with LPS (LPS-SM, #tlrl-smlps, Invivogen=activated condition) at a concentration of 5 ng/ml in duplicates. Thus, treated cells were then incubated for a period of 18 hours at 37° C. and 5% CO2 followed by harvesting of cell supernatants. Cytokine concentrations were determined in cell supernatants using the V-PLEX Human Proinflammatory Panel II (4-Plex) kit (Mesoscale Discovery) according to the manufacturer's instructions (Alternate Protocol 1, Extended Incubation). Two patients had to be excluded from analysis due to technical problems.

Molecule	Edinburgh Hypoglycemia Scale score, timepoint 0 min [1]	Edinburgh Hypoglycemia Scale score, timepoint 60 min [1]	Edinburgh Hypoglycemia Scale score, timepoint 90 min [1]	Edinburgh Hypoglycemia Scale score, timepoint 120 min [1]	Edinburgh Hypoglycemia Scale score, timepoint 150 min [1]	Edinburgh Hypoglycemia Scale score, timepoint 180 min [1]	model coefficient (treatment vs placebo) for occurrence of Edinburgh composite score ≥6 [1]	Edinburgh Hypoglycemia Scale score, timepoint −120 min [1]	IL-1 beta in monocyte supernatant, estimate vs placebo (bulk monocytes)	IL-6 in monocyte supernatant, estimate vs placebo (bulk monocytes)	TNFalpha in monocyte supernatant, estimate vs placebo (bulk monocytes)	postprandial increase in inflammatory cytokine secretion (IL-1β, IL-6, TNF-α) by monocytes (bulk monocytes)
anakinra: CAS NO 143090-92-0; recombinant, non-glycosylated form of the human interleukin-1 receptor antagonist (IL-1 Ra), 153 amino acids	0	0	0	0	0	0	−2.429	0	−2426.73	−17208.1	−452.659	significantly inhibited
OC[C@H]1O[C@@H](c2ccc(Cl)c(Cc3ccc(O[C@H]4CCOC4)cc3)c2)[C@H](O)[C@@H](O)[C@@H]1O [empagliflozin]	0	0	0	0	0	0	−2.429	0	−3395.36	−18937.7	−453.496	significantly inhibited
